We go through 99 molecules from ChEMBL document CHEMBL3507680, “University of Dundee, Gates Library screen for HepG2 cell viability”.

A short description of this data set: Human HepG2 cell viability assay in 384 well format. The data set is classed as toxicity, cell-based. On the set-up: dose 125 nL, time 70.5 hour; cytotoxicity at 70.5 h: concentration not given beside the values. The note with it: HepG2 cells, read-out: Inhibition.
For the molecule `CCOC(=O)c1cnn(-c2cc(Oc3ccccc3)ncn2)c1N`, the cytotoxicity at 70.5 h was determined as 3.77%.
Take `O=C(CN1CCCC1)Nc1c2c(cc3c1CCC3)CCC2`: the cytotoxicity at 70.5 h is -4.72%.
On to `CNC(C)Cc1ccccc1Sc1ccc(O)cc1` (centres undefined), for which the cytotoxicity at 70.5 h was -8.32%.
For `CCOC(=O)c1cnn(-c2cc(Oc3ccccc3C)ncn2)c1N` the value was 23.9%; for `COc1cccc2c3c(c(=O)[nH]c12)CC(C)(C)O3`, -6.98%.
Under `O=C(C1CCC2(CCN(c3ncccn3)CC2)CO1)N1CCCC1` (centres undefined) stands -5.27%.
Under `O=C(NCCc1ccccc1)N1C[C@H]2C[C@H](C(=O)N3CCCC3)[C@@H](C1)O2` stands 0.399%; under `Cn1cnc(S(=O)(=O)N2CCO[C@H]3[C@H](OCC4CC4)CC[C@@H]32)c1`, -2.37%; under `CCS(=O)(=O)N1CCCC2(COCCN(c3nncs3)C2)C1` (centres undefined), -2.49%.
For `Cc1cnc(C(=O)N2CCC3(CC2)C(=O)NCCN3CC(C)C)cn1`, the cytotoxicity at 70.5 h was -2.5%.
For `COc1cc(C2CC(=O)Nc3c2c(=O)[nH]n3C2CCCC2)ccc1O` (centres undefined) the value was -2.72%; for `O=C1CCCN1Cc1noc(-c2ccc(Cl)cc2)n1`, -6.78%.
`CCc1ccc(NC(=O)CC2Cn3ncnc3NC2=O)cc1` (centres undefined): the cytotoxicity at 70.5 h is -16.3%.
On to `CCOc1ccc(NC(=O)c2cc3c([nH]c2=O)CCC3)cc1`, for which the cytotoxicity at 70.5 h is -13.3%.
With `Cc1ccc(NC(=O)CC2Cn3ncnc3NC2=O)cc1C` (centres undefined), the cytotoxicity at 70.5 h is -8.36%.
Under `CCOCCCNC(=O)CN(c1cc(C)cc(C)c1)S(C)(=O)=O` stands -14.2%; under `CC(C)n1c(=O)c2sccc2n(CC(=O)Nc2ccccc2)c1=O`, -11%; under `Cc1n[nH]c2c1C(c1ccc3c(c1)OCO3)SCC(=O)N2` (centres undefined), 25.4%.
Under `CC(C)CN1CCn2c(nc3cc(C(=O)NC(C)C)ccc32)C1` stands -11.8%; under `CCOc1ccc(C2SCC(=O)Nc3c2c(=O)[nH]n3C(CC)CC)cc1` (centres undefined), -6.79%.
`O=C(Cc1csc(-c2ccccc2)n1)N[C@@H](C(=O)O)c1ccccc1`: the cytotoxicity at 70.5 h is -9.17%.
`CSC1=Nc2c(cnn2-c2ccc(C)cc2)C2=NCCCN12`: the cytotoxicity at 70.5 h was -10.1%.
For `CSC1=Nc2c(cnn2-c2ccccc2)C2=NCCCN12` the value was -8.98%; for `CC(C)C(NC(=O)Cn1nc2c(cc1=O)CCCC2)C(=O)O` (centres undefined), -13.5%; for `O=C(Cn1nc2c(cc1=O)CCCC2)NC(C(=O)O)c1ccccc1` (centres undefined), -12.2%.
`CC1=Nc2c(c(O)nn2C(C)C)C(c2cn(C)nc2C)S1` (centres undefined): the cytotoxicity at 70.5 h came out at 21%.
Turning to `Cc1ccc(-c2[nH][nH]c(=O)c2CCN)cc1`, the cytotoxicity at 70.5 h is -14.2%.
Under `Cc1ccc(-c2[nH]c3ccccc3c2C(=O)O)c(C)c1` stands -4.63%; under `Cc1cccc(NC(=O)c2csc(NCC(C)C)n2)n1`, -14.8%; under `O=C(CSC1CCc2ccccc2NC1=O)Nc1ccc(CCO)cc1` (centres undefined), -1.18%.
Under `O=C(O)C1CCN(C(=O)Cn2ccc3c(Cl)cccc32)CC1` stands -12.6%; under `CC(=O)N1CCN(C(=O)Cn2ccc3c(Cl)cccc32)CC1`, -16.8%; under `CC(C)OCCCNC(=O)C1CCCN(c2ccc3nncn3n2)C1` (centres undefined), -9.82%.
Turning to `O=C(O)CSC1CCc2ccccc2NC1=O` (centres undefined), the cytotoxicity at 70.5 h was -14.7%.
With `CC(C)n1[nH]c(=O)c2c1NC(=O)CC2c1cccc(O)c1` (centres undefined), the cytotoxicity at 70.5 h was -9.65%.
Under `O=C1CC(c2ccccc2)c2sc(C(=O)O)c(-c3ccccc3)c2N1` (centres undefined) stands -8.23%; under `COc1ccc(NC(=O)Cn2cc(-c3ccccc3)ncc2=O)cn1`, -6.77%; under `O=C(Cn1cc(-c2ccccc2)ncc1=O)Nc1nccs1`, 7.52%.
As for `O=C(Cn1c(=O)nc2n1C(=O)N(c1ccccc1)C2)NC1CCCCC1`, the cytotoxicity at 70.5 h was -7.65%.
For `CCOC(=O)N1CCN(C(=O)c2sc(-c3ccncc3)nc2C)CC1` the value was 23.5%.
Under `CC(C)NC(=O)Cn1cc(-c2ccccc2)ncc1=O` stands -7.17%.
Under `CCNS(=O)(=O)c1cnccc1N1CCN(CCO)CC1` stands 4.82%.
As to `NC(=O)CSc1nnc2n1N=CN(c1ccccc1F)C2`, the cytotoxicity at 70.5 h is -6.75%.
Under `O=c1c2cn[nH]c2nc(SCCN2CCOCC2)n1-c1ccccc1` stands -7.75%; under `O=S(=O)(Cc1ccc(Br)cc1)NCCO`, -0.457%.
Under `Cc1nn(S(=O)(=O)c2ccc(Cl)cc2)c(C)c1C` stands 38.4%.
Under `CC(=O)c1c(C)nn(S(=O)(=O)c2ccccc2)c1C` stands 3.79%; under `CCOC1Sc2nnc(C)n2N=C1c1ccc(Cl)cc1` (centres undefined), -8.8%.
On to `CCc1nn(-c2cc(Oc3ccccc3)nc(C)n2)c(N)c1C#N`, for which the cytotoxicity at 70.5 h was 2.22%.
On to `Cc1ccccc1S(=O)(=O)N(C)[C@@H]1CC[C@@H](n2ccnc2C)[C@@H]1O`, for which the cytotoxicity at 70.5 h was 53.4%.
For `Cc1noc(C)c1CC(=O)N[C@@H]1CC[C@@H](Oc2ccccc2)[C@@H]1O` the value was -3.35%; for `Cc1nccn1-c1nccnc1C1CCCN(C)C1` (centres undefined), -4.67%.
Under `CNc1ccc(C2CN(c3cc(C)ncn3)CCO2)nc1` (centres undefined) stands 1.5%; under `Cc1ccnc(C2CCN(CCCOc3ccccc3F)C2)n1` (centres undefined), -1.63%.
For `Cc1cc(-c2ccnn2C)nc(C2CCN(S(C)(=O)=O)CC2)n1` the value was -4.75%; for `Cc1ccccc1CC(=O)NCc1cnc(CC2CCN(C)CC2)cn1`, -4.57%; for `CN([C@@H]1CC[C@@H](N2CCCC2)[C@@H]1O)S(=O)(=O)c1ccccc1`, 24.7%.
Turning to `O=S(=O)(c1cn[nH]c1)N1CCC(O)(CN2CCOCC2)C1` (centres undefined), the cytotoxicity at 70.5 h was 4.95%.
For `CCC(=O)N1CCC(c2ncc(C(=O)Nc3ccccc3)c(C)n2)C1` (centres undefined) the value was -3.38%; for `O=C(c1ccncc1)N1CCCC(C2=Nc3ccccc3S(=O)(=O)N2)C1` (centres undefined), -3.07%; for `CN1CCCC(c2cccc(-c3ccccc3F)n2)C1` (centres undefined), -2.39%.
For `CN(C)c1ccc(C(=O)N2CCC(c3cc4cnccc4[nH]3)CC2)cc1` the value was -0.667%; for `CC(=O)N1CCC1c1nc(-c2ccc(C)s2)no1` (centres undefined), 23.5%; for `Cn1ccc(C(=O)N2CCCC2c2cc(CO)[nH]n2)n1` (centres undefined), -2.72%.
Under `Cc1cc(NC(=O)CN2CCN(C3CCCC3)C(=O)C2)nn1C` stands -4.01%; under `Cc1noc(C)c1C(=O)N[C@@H]1CC[C@@H](Oc2ccccc2)[C@@H]1O`, -2.95%.
With `OCc1cc(C2CCCN2c2ncccn2)n[nH]1` (centres undefined), the cytotoxicity at 70.5 h came out at 0.468%.
`Fc1ccccc1-c1cccc(C2CCCN(C3CCOCC3)C2)n1` (centres undefined): the cytotoxicity at 70.5 h was -7.34%.
Under `COc1ccc(C2CN(c3nc(C)cc(C)n3)CCN2C(C)=O)cc1` (centres undefined) stands -4.4%; under `CCc1c(C)nn2c(O)cc(C3CCN(C(=O)C4CC4)C3)nc12` (centres undefined), -6%; under `CCNC(=O)[C@H]1CN(Cc2ccccc2)C[C@@H]1C(=O)c1ccccc1`, -12.3%.
Under `O=C(c1cc(C2CC2)on1)N1C[C@H]2CC[C@](O)(c3ccccc3F)[C@H]2C1` stands -0.256%; under `CN(C)Cc1cccc(-c2cccnc2C(=O)NCc2ccccn2)c1`, -3.29%; under `CN([C@@H]1CC[C@@H](N2CCOCC2)[C@@H]1O)S(=O)(=O)c1ccccc1`, -10.3%.
Take `CC1(c2nccs2)CCN(C(=O)CC2CCOCC2)CC1`: the cytotoxicity at 70.5 h is -9.57%.
Take `Nc1cc(-c2c[nH]nc2C2CCN(C(=O)C3CCCC3)C2)ccn1` (centres undefined): the cytotoxicity at 70.5 h came to 5.65%.
As for `c1cnc(N2CCCC(Cc3nccs3)C2)nc1` (centres undefined), the cytotoxicity at 70.5 h is -3.8%.
Under `CS(=O)(=O)N1CCCCC1c1ccc(Nc2cnccn2)nc1` (centres undefined) stands -7.53%; under `Cc1cc(C(F)F)nn1CC(=O)NCc1nccn1C`, -3.8%; under `CNC(=O)C1CN(C(=O)Cc2ccc(OC)cc2)Cc2cn(C)nc21` (centres undefined), -7.07%.
As for `CCCC(=O)NCCc1cc(NC)nc(-c2ccccn2)n1`, the cytotoxicity at 70.5 h came to 20.8%.
As for `CNC(=O)C1CCCN(C(=O)c2cncs2)C1` (centres undefined), the cytotoxicity at 70.5 h is -9.62%.
For `CN1CCN(C(=O)CCn2ncc3ccccc32)CC(C(N)=O)C1` (centres undefined) the value was -6.19%; for `CN(C)c1nccnc1C1CCN(C(=O)C2(C)CCCCN2C)CC1` (centres undefined), -5.33%.
For `Cc1cncc(C2CCN(Cc3ccc(S(C)(=O)=O)cc3)CC2)n1` the value was -9.92%; for `O=C(CC1CC1)N1C[C@@H](O)[C@H](N2CCN(c3ccccc3)CC2)C1`, 22.4%; for `CC(C)N1CC(c2ccnc(Nc3nccs3)n2)C1`, -10.4%.
Under `Cc1cncc(C2CCN(Cc3cnc(C)nc3)CC2)n1` stands -7.22%; under `CC(C)Cn1nc(-c2ccc(C(=O)O)cc2)cc1-c1ccc(F)cc1`, -5.39%.
As for `O=C(CCN1CCCCC1)Nc1c2c(cc3c1CCC3)CCC2`, the cytotoxicity at 70.5 h was -1.77%.
For `CCN(CC)CCn1c(=O)oc2ccccc21` the value was -3.03%; for `CCC(CO)NCc1ccc(-c2ccc(F)cc2)o1` (centres undefined), -2.16%; for `CCC(CO)NCc1ccc(-c2ccccc2)o1` (centres undefined), 29.3%.
Regarding `c1nn(C2CCCCC2)cc1-c1cncn1CCCN1CCCCC1`, the cytotoxicity at 70.5 h was -0.625%.
Under `NCCc1c(-c2ccccc2)[nH][nH]c1=O` stands -7.56%; under `CN(C)CCOCc1ncn2c1CN(c1ncc(F)cn1)CCC2`, -3.65%; under `COc1cc(CN(C)[C@@H]2COC[C@H]2c2ccc(F)cc2)cc(OC)c1`, 0.803%.
For `Cc1nc2sccn2c1CN(CCCN(C)C)Cc1ccco1` the value was -21.2%; for `CC(N)Cc1ccccc1Sc1ccccc1` (centres undefined), -1.45%.
